# In patent publication US20260028343A1, “Substituted Imidazopyrazine Compounds as Ligand Directed Degraders of IRAK3” (Celgene Corporation, priority 2022, published 2026):
# Legend:
# IRAK3 [1] = target: T1, IRAK3 (Homo sapiens, UniProt Q9Y616); assay: IRAK Endogenous HTRF Degradation Assay; format: cell-based; conditions: endogenous IRAK3, overnight incubation; for Dmax: % Dmax=100−Ymin; for DC50: concentration at which 50% degradation is achieved
# T1 construct: IRAK Endogenous HTRF Degradation Assay; endogenous in cells
# T1 sequence (Q9Y616 1-596): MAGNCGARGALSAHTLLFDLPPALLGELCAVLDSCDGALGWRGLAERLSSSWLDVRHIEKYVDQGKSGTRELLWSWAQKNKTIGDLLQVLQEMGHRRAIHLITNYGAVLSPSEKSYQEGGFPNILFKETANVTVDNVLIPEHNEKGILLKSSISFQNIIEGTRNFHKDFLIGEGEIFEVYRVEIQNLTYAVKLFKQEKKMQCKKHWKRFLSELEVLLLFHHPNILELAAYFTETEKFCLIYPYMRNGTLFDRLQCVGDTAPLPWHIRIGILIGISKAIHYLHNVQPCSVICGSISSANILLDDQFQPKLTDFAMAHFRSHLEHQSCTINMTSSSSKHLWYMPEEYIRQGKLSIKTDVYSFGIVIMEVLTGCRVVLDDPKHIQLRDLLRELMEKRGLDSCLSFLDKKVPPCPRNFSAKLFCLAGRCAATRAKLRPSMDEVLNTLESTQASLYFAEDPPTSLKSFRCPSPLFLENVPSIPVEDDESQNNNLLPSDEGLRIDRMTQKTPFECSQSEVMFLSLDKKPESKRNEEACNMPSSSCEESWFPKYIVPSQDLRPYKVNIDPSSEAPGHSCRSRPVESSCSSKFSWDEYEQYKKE
# Procedure: Cells (˜50 k) were plated in Cisbio 96-well low volume white plates (Cisbio: cat #66PL96005). Compounds were dissolved in DMSO and a 3-fold serial dilution was performed using a TECAN D300E. Cells were incubated with the compound overnight. Total-IRAK3 HTRF kit from Cisbio was used for degradation analysis (Cisbio: 63ADK101PEH). Cryptate and D2 antibodies were diluted in Detection buffer as per manufacturers recommendation. Then 2 μL of each solution was added to 16 μL lysate. Buffer control (lysis buffer detection buffer), Cryptate control (lysis buffer+cryptate antibody+detection buffer), and Negative control (lysis buffer+cryptate antibody+D2 antibody) were made as per manufacturers recommendation. Post incubation with antibodies the HTRF signal was measured using a Perkin Elmer Envision reader and the HTRF signal was calculated using formula: (Emission at 665 nm/Emission at 615 nm)*10,000. All HTRF values were normalized to the average value of DMSO. The average value of the DMSO control wells were set to equal 100% of the relative IRAK3 protein levels. Normalized luminescence values were plotted on a graph as a function of compound concentration. Compound concentration was plotted on the x-axis and the corresponding normalized IRAK3 protein levels on the y-axis. The EC50 value (the half-maximum effective concentration) of a compound for the degradation of the IRAK3 was calculated using a four-parameter logistic model (sigmoidal dose−response model)(FIT=(A+{(B−A)/1+[(C/x)D]})) where C is the inflection point (EC50), D is the […], and A and B are the low and high limits of the fit, respectively). The Ymin was calculated by determining the lowest percentage of target protein remaining following compound treatment. Dmax was calculated from Ymin (% Dmax=100−Ymin).
# (§1) Using these assays, IC50, Dmax, EC50, and DC50 values of the following compounds were determined. Dmax is defined as the maximum percent degradation achieved and DC50 is the concentration at which 50% degradation is achieved.
# IRAK3 [2] = target: T1, IRAK3; assay: IRAK3 Biochemical Binding Assay (LanthaScreen Eu Kinase Binding); conditions: TR-FRET tracer displacement, 1 hour at room temperature
# Procedure: The LanthaScreen® Eu Kinase Binding assay was performed as described by the vendor (ThermoFisher Scientific Waltham, MA). Briefly, 100× solutions of compound were prepared in DMSO via serial dilution of the 10 mM stock solution in a 384-well reagent plate using 3-fold intervals to achieve final concentrations. 1 μL of the compound dilution series were added to the corresponding wells of a 384-well reagent plate containing 32.3 μL of 1× buffer (50 mM HEPES pH 7.4, […], 1 mM EGTA, 0.01% Brij-35). 5 μL of the buffer diluted compounds were transferred to the corresponding wells of a 384-well assay plate. 5 μL of 3× tracer was transferred to each well of the assay plate for a final tracer concentration of 10 nM. Finally, 5 μL of the 3× Eu-Anti-GST and IRAK3 mix was transferred to each well for a final concentration of 2 nM and 10 nM respectively. Reactions were allowed to incubate for 1 hour at room temperature. TR-FRET signal of the interaction (λex340/λem 665/λem 615) was read at room temperature with a delay time of 100 μs and an integration time of 200 μs using an Envision plate reader. Background corrected emission signal ratios at each compound concentration were used to calculate percentage of inhibition (% Inhibition). Plots of % Inhibition versus inhibitor concentrations were fit according to a dose-response equation (Eq. 1) to generate IC50 and Hill slope values using Dotmatics software (Dotmatics, Bishops Stortford, Hertfordshire, England).
# as §1
SMILES,Dmax (IRAK3 [1]) [%],DC50 (IRAK3 [1]) [µM],IC50 (IRAK3 [2]) [nM]
"Cc1cccc(-c2cnc(Nc3ccc(N4CCN(C(=O)COc5cccc6c5C(=O)N(C5CCC(=O)NC5=O)C6=O)CC4)cc3)c3nccn23)c1 (stereo not drawn) [Compound 1, 2-(2,6-Dioxopiperidin-3-yl)-4-(2-oxo-2-(4-(4-((5-(m-tolyl)imidazo[1,2-a]pyrazin-8-yl)amino)phenyl)piperazin-1-yl)ethoxy)isoindoline-1,3-dione]",7,> 10,278
"Cc1cccc(-c2cnc(Nc3ccc(N4CCN(C(=O)CCCNC(=O)COc5cccc6c5C(=O)N(C5CCC(=O)NC5=O)C6=O)CC4)cc3)c3nccn23)c1 (stereo not drawn) [Compound 2, 2-((2-(2,6-Dioxopiperidin-3-yl)-1,3-dioxoisoindolin-4-yl)oxy)-N-(4-oxo-4-(4-(4-((5-(m-tolyl)imidazo[1,2-a]pyrazin-8-yl)amino)phenyl)piperazin-1-yl)butyl)acetamide]",13,> 10,30
"Cc1cccc(-c2cnc(Nc3ccc(N4CCN(C(=O)CCOCCNC(=O)COc5cccc6c5C(=O)N(C5CCC(=O)NC5=O)C6=O)CC4)cc3)c3nccn23)c1 (stereo not drawn) [Compound 3, 2-((2-(2,6-Dioxopiperidin-3-yl)-1,3-dioxoisoindolin-4-yl)oxy)-N-(2-(3-oxo-3-(4-(4-((5-(m-tolyl)imidazo[1,2-a]pyrazin-8-yl)amino)phenyl)piperazin-1-yl)propoxy)ethyl)acetamide]",3,> 10,84
"Cc1cccc(-c2cnc(Nc3ccc(N4CCN(C(=O)COc5ccc6c(c5)C(=O)N(C5CCC(=O)NC5=O)C6=O)CC4)cc3)c3nccn23)c1 (stereo not drawn) [Compound 4, 2-(2,6-Dioxopiperidin-3-yl)-5-(2-oxo-2-(4-(4-((5-(m-tolyl)imidazo[1,2-a]pyrazin-8-yl)amino)phenyl)piperazin-1-yl)ethoxy)isoindoline-1,3-dione]",4,> 10,128
"Cc1cccc(-c2cnc(Nc3ccc(N4CCN(C(=O)CCCNC(=O)COc5ccc6c(c5)C(=O)N(C5CCC(=O)NC5=O)C6=O)CC4)cc3)c3nccn23)c1 (stereo not drawn) [Compound 5, 2-((2-(2,6-Dioxopiperidin-3-yl)-1,3-dioxoisoindolin-5-yl)oxy)-N-(4-oxo-4-(4-(4-((5-(m-tolyl)imidazo[1,2-a]pyrazin-8-yl)amino)phenyl)piperazin-1-yl)butyl)acetamide]",18,> 10,71
"Cc1cccc(-c2cnc(Nc3ccc(N4CCN(C(=O)CCOCCNC(=O)COc5ccc6c(c5)C(=O)N(C5CCC(=O)NC5=O)C6=O)CC4)cc3)c3nccn23)c1 (stereo not drawn) [Compound 6, 2-((2-(2,6-Dioxopiperidin-3-yl)-1,3-dioxoisoindolin-5-yl)oxy)-N-(2-(3-oxo-3-(4-(4-((5-(m-tolyl)imidazo[1,2-a]pyrazin-8-yl)amino)phenyl)piperazin-1-yl)propoxy)ethyl)acetamide]",13,> 10,83

# Results, then the molecule that gave them:
Dmax (IRAK3 [1]) [%],DC50 (IRAK3 [1]) [µM],IC50 (IRAK3 [2]) [nM],SMILES
27,> 10,33,"Cc1cccc(-c2cnc(Nc3ccc(N4CCN(CCNC(=O)COc5ccc6c(c5)C(=O)N(C5CCC(=O)NC5=O)C6=O)CC4)cc3)c3nccn23)c1 (stereo not drawn) [Compound 7, 2-((2-(2,6-Dioxopiperidin-3-yl)-1,3-dioxoisoindolin-5-yl)oxy)-N-(2-(4-(4-((5-(m-tolyl)imidazo[1,2-a]pyrazin-8-yl)amino)phenyl)piperazin-1-yl)ethyl)acetamide]"
73,0.02,< 0.5,"Cc1cccc(-c2cnc(Nc3cnn(C4CCN(CCNC(=O)COc5ccc6c(c5)C(=O)N(C5CCC(=O)NC5=O)C6=O)CC4)c3)c3nccn23)c1 (stereo not drawn) [Compound 8, 2-((2-(2,6-Dioxopiperidin-3-yl)-1,3-dioxoisoindolin-5-yl)oxy)-N-(2-(4-(4-((5-(m-tolyl)imidazo[1,2-a]pyrazin-8-yl)amino)-1H-pyrazol-1-yl)piperidin-1-yl)ethyl)acetamide]"
33,> 10,214,"Cc1cccc(-c2cnc(Nc3cccc(C4CCN(CCNC(=O)COc5ccc6c(c5)C(=O)N(C5CCC(=O)NC5=O)C6=O)CC4)c3)c3nccn23)c1 (stereo not drawn) [Compound 9, 2-((2-(2,6-Dioxopiperidin-3-yl)-1,3-dioxoisoindolin-5-yl)oxy)-N-(2-(4-(3-((5-(m-tolyl)imidazo[1,2-a]pyrazin-8-yl)amino)phenyl)piperidin-1-yl)ethyl)acetamide]"
30,> 10,236,"Cc1cccc(-c2cnc(Nc3ccc(C4CCN(CCNC(=O)COc5ccc6c(c5)C(=O)N(C5CCC(=O)NC5=O)C6=O)CC4)cc3)c3nccn23)c1 (stereo not drawn) [Compound 10, 2-((2-(2,6-Dioxopiperidin-3-yl)-1,3-dioxoisoindolin-5-yl)oxy)-N-(2-(4-(4-((5-(m-tolyl)imidazo[1,2-a]pyrazin-8-yl)amino)phenyl)piperidin-1-yl)ethyl)acetamide]"
21,> 10,5340,"Cc1cccc(-c2cnc(Nc3cccc(N4CCN(CCNC(=O)COc5ccc6c(c5)C(=O)N(C5CCC(=O)NC5=O)C6=O)CC4)c3)c3nccn23)c1 (stereo not drawn) [Compound 11, 2-((2-(2,6-Dioxopiperidin-3-yl)-1,3-dioxoisoindolin-5-yl)oxy)-N-(2-(4-(3-((5-(m-tolyl)imidazo[1,2-a]pyrazin-8-yl)amino)phenyl)piperazin-1-yl)ethyl)acetamide]"
81,0.01,2,"Cc1cccc(-c2cnc(Nc3cnn(C4CCN(C5CCC6(CC5)CCN(C(=O)c5ccc7c(c5)CN(C5CCC(=O)NC5=O)C7=O)CC6)CC4)c3)c3nccn23)c1 (stereo not drawn) [Compound 12, 3-(1-Oxo-5-(9-(4-(4-((5-(m-tolyl)imidazo[1,2-a]pyrazin-8-yl)amino)-1H-pyrazol-1-yl)piperidin-1-yl)-3-azaspiro[5.5]undecane-3-carbonyl)isoindolin-2-yl)piperidine-2,6-dione]"
